According to ChEMBL document CHEMBL3045446, “In vitro antimicrobial and antimycobacterial activity of some chalcones and their derivatives” (2013):
Values after ≈ are worked out from the molar mass of the structure shown.

Tests used:
Type in all cases: functional
Candida albicans [1] = assay: Antimicrobial activity against Candida albicans MTCC 183 assessed as growth inhibition after 48 hr by agar streak dilution method; conditions: MTCC 183, 48 h
Proteus vulgaris [2] = assay: Antimicrobial activity against Proteus vulgaris MTCC 1771 assessed as diameter of growth inhibition zone after 24 hr
Escherichia coli [3] = assay: Antimicrobial activity against Escherichia coli MTCC 739 assessed as growth inhibition after 24 hr by agar streak dilution method; conditions: MTCC 739, 24 h
Aspergillus fumigatus [4] = assay: Antimicrobial activity against Aspergillus fumigatus MTCC 343 assessed as diameter of growth inhibition zone after 48 hr
Shigella flexneri [5] = assay: Antimicrobial activity against Shigella flexneri MTCC1457 assessed as growth inhibition after 24 hr by agar streak dilution method; conditions: MTCC1457, 24 h
Staphylococcus aureus [6] = assay: Antimicrobial activity against Staphylococcus aureus MTCC 96 assessed as growth inhibition after 24 hr by agar streak dilution method; conditions: MTCC 96, 24 h
Pseudomonas aeruginosa [7] = assay: Antimicrobial activity against Pseudomonas aeruginosa MTCC 741 assessed as diameter of growth inhibition zone after 24 hr
Aspergillus clavatus [8] = assay: Antimicrobial activity against Aspergillus clavatus MTCC 1323 assessed as diameter of growth inhibition zone after 48 hr
Pseudomonas aeruginosa [9] = assay: Antimicrobial activity against Pseudomonas aeruginosa MTCC 741 assessed as growth inhibition after 24 hr by agar streak dilution method; conditions: MTCC 741, 24 h
Escherichia coli [10] = assay: Antimicrobial activity against Escherichia coli MTCC 739 assessed as diameter of growth inhibition zone after 24 hr
Bacillus cereus [11] = assay: Antimicrobial activity against Bacillus cereus MTCC 430 assessed as growth inhibition after 24 hr by agar streak dilution method; conditions: MTCC 430, 24 h
Klebsiella pneumoniae [12] = assay: Antimicrobial activity against Klebsiella pneumoniae MTCC 109 assessed as diameter of growth inhibition zone after 24 hr
Salmonella typhi [13] = assay: Antimicrobial activity against Salmonella enterica subsp. enterica serovar Typhi MTCC 733 assessed as diameter of growth inhibition zone after 24 hr
Candida albicans [14] = assay: Antimicrobial activity against Candida albicans MTCC 183 assessed as diameter of growth inhibition zone after 48 hr
Bacillus cereus [15] = assay: Antimicrobial activity against Bacillus cereus MTCC 430 assessed as diameter of growth inhibition zone after 24 hr
Aspergillus niger [16] = assay: Antimicrobial activity against Aspergillus niger MTCC 282 assessed as diameter of growth inhibition zone after 48 hr
Aspergillus clavatus [17] = assay: Antimicrobial activity against Aspergillus clavatus MTCC 1323 assessed as growth inhibition after 48 hr by agar streak dilution method; conditions: MTCC 1323, 48 h
Klebsiella pneumoniae [18] = assay: Antimicrobial activity against Klebsiella pneumoniae MTCC 109 assessed as growth inhibition after 24 hr by agar streak dilution method; conditions: MTCC 109, 24 h
Shigella flexneri [19] = assay: Antimicrobial activity against Shigella flexneri MTCC1457 assessed as diameter of growth inhibition zone after 24 hr
Aspergillus niger [20] = assay: Antimicrobial activity against Aspergillus niger MTCC 282 assessed as growth inhibition after 48 hr by agar streak dilution method; conditions: MTCC 282, 48 h
Staphylococcus aureus [21] = assay: Antimicrobial activity against Staphylococcus aureus MTCC 96 assessed as diameter of growth inhibition zone after 24 hr
[22] = tested on: Mycobacterium tuberculosis; assay: Antituberculosis activity against Mycobacterium tuberculosis H37Rv assessed as growth inhibition after 12 to 28 days by L-J MIC method; conditions: for MIC: Mycobacterium tuberculosis, H37Rv
Proteus vulgaris [23] = assay: Antimicrobial activity against Proteus vulgaris MTCC 1771 assessed as growth inhibition after 24 hr by agar streak dilution method; conditions: MTCC 1771, 24 h
Aspergillus fumigatus [24] = assay: Antimicrobial activity against Aspergillus fumigatus MTCC 343 assessed as growth inhibition after 48 hr by agar streak dilution method; conditions: MTCC 343, 48 h
Salmonella typhi [25] = assay: Antimicrobial activity against Salmonella enterica subsp. enterica serovar Typhi MTCC 733 assessed as growth inhibition after 24 hr by agar streak dilution method; conditions: MTCC 733, 24 h

| SMILES | MIC (Candida albicans [1]) | diameter of the inhibition zone (DIZ) (Proteus vulgaris [2]) | MIC (Escherichia coli [3]) | diameter of the inhibition zone (DIZ) (Aspergillus fumigatus [4]) | MIC (Shigella flexneri [5]) | MIC (Staphylococcus aureus [6]) | diameter of the inhibition zone (DIZ) (Pseudomonas aeruginosa [7]) | diameter of the inhibition zone (DIZ) (Aspergillus clavatus [8]) | MIC (Pseudomonas aeruginosa [9]) | diameter of the inhibition zone (DIZ) (Escherichia coli [10]) | MIC (Bacillus cereus [11]) | diameter of the inhibition zone (DIZ) (Klebsiella pneumoniae [12]) | diameter of the inhibition zone (DIZ) (Salmonella typhi [13]) | diameter of the inhibition zone (DIZ) (Candida albicans [14]) | diameter of the inhibition zone (DIZ) (Bacillus cereus [15]) | diameter of the inhibition zone (DIZ) (Aspergillus niger [16]) | MIC (Aspergillus clavatus [17]) | MIC (Klebsiella pneumoniae [18]) | diameter of the inhibition zone (DIZ) (Shigella flexneri [19]) | MIC (Aspergillus niger [20]) | further results |
| --- | --- | --- | --- | --- | --- | --- | --- | --- | --- | --- | --- | --- | --- | --- | --- | --- | --- | --- | --- | --- | --- |
| O=C(/C=C/c1ccc(F)cc1)c1ccc(Nc2cc(=O)oc3ccccc23)cc1 | 100 µg/mL (≈ 259 µM) | 18 mm | 50 µg/mL (≈ 130 µM) | 19 mm | 100 µg/mL (≈ 259 µM) | 50 µg/mL (≈ 130 µM) | 16 mm | 15 mm | 100 µg/mL (≈ 259 µM) | 18 mm | 25 µg/mL (≈ 64.9 µM) | 17 mm | 17 mm | 13 mm | 19 mm | 17 mm | 100 µg/mL (≈ 259 µM) | 100 µg/mL (≈ 259 µM) | 14 mm | 50 µg/mL (≈ 130 µM) | diameter of the inhibition zone (DIZ) (Staphylococcus aureus [21]): 18 mm; growth inhibition (GI) [22]: 97%; MIC [22]: 250 µg/mL (≈ 649 µM); MIC (Proteus vulgaris [23]): 50 µg/mL (≈ 130 µM); MIC (Aspergillus fumigatus [24]): 50 µg/mL (≈ 130 µM); MIC (Salmonella typhi [25]): 100 µg/mL (≈ 259 µM) |
| O=C(/C=C/c1ccc(Cl)cc1)c1ccc(Nc2cc(=O)oc3ccccc23)cc1 | 100 µg/mL (≈ 249 µM) | 17 mm | 100 µg/mL (≈ 249 µM) | 14 mm | 50 µg/mL (≈ 124 µM) | 50 µg/mL (≈ 124 µM) | 10 mm | 14 mm | 100 µg/mL (≈ 249 µM) | 12 mm | 100 µg/mL (≈ 249 µM) | 20 mm | 15 mm | 15 mm | 14 mm | 12 mm | 100 µg/mL (≈ 249 µM) | 50 µg/mL (≈ 124 µM) | 18 mm | 100 µg/mL (≈ 249 µM) | diameter of the inhibition zone (DIZ) (Staphylococcus aureus [21]): 18 mm; growth inhibition (GI) [22]: 95%; MIC [22]: 1000 µg/mL (≈ 2490 µM); MIC (Proteus vulgaris [23]): 100 µg/mL (≈ 249 µM); MIC (Aspergillus fumigatus [24]): 100 µg/mL (≈ 249 µM); MIC (Salmonella typhi [25]): 100 µg/mL (≈ 249 µM) |
| N#Cc1c(-c2ccccc2O)cc(-c2ccc(Nc3cc(=O)oc4ccccc34)cc2)nc1N | 25 µg/mL (≈ 56 µM) | 22 mm | 12.5 µg/mL (≈ 28 µM) | 25 mm | 12.5 µg/mL (≈ 28 µM) | 12.5 µg/mL (≈ 28 µM) | 24 mm | 27 mm | 12.5 µg/mL (≈ 28 µM) | 24 mm | 12.5 µg/mL (≈ 28 µM) | 28 mm | 25 mm | 24 mm | 22 mm | 25 mm | 6.25 µg/mL (≈ 14 µM) | 3.12 µg/mL (≈ 6.99 µM) | 21 mm | 12.5 µg/mL (≈ 28 µM) | diameter of the inhibition zone (DIZ) (Staphylococcus aureus [21]): 21 mm; growth inhibition (GI) [22]: 97%; MIC [22]: 25 µg/mL (≈ 56 µM); MIC (Proteus vulgaris [23]): 12.5 µg/mL (≈ 28 µM); MIC (Aspergillus fumigatus [24]): 6.25 µg/mL (≈ 14 µM); MIC (Salmonella typhi [25]): 6.25 µg/mL (≈ 14 µM) |
| CC(=O)N1N=C(c2ccc(Nc3cc(=O)oc4ccccc34)cc2)CC1c1ccccc1Br (centres undefined) | 25 µg/mL (≈ 49.8 µM) | 15 mm | 100 µg/mL (≈ 199 µM) | 17 mm | 100 µg/mL (≈ 199 µM) | 100 µg/mL (≈ 199 µM) | 12 mm | 14 mm | 100 µg/mL (≈ 199 µM) | 14 mm | 100 µg/mL (≈ 199 µM) | 16 mm | 15 mm | 21 mm | 14 mm | 15 mm | 100 µg/mL (≈ 199 µM) | 100 µg/mL (≈ 199 µM) | 14 mm | 100 µg/mL (≈ 199 µM) | diameter of the inhibition zone (DIZ) (Staphylococcus aureus [21]): 16 mm; growth inhibition (GI) [22]: 98%; MIC [22]: 200 µg/mL (≈ 398 µM); MIC (Proteus vulgaris [23]): 100 µg/mL (≈ 199 µM); MIC (Aspergillus fumigatus [24]): 50 µg/mL (≈ 99.5 µM); MIC (Salmonella typhi [25]): 100 µg/mL (≈ 199 µM) |
